“Also recorded” adds a separate entry of the source.
System: choroidal neovascularization (CNV)
Assay: Rodent model of surgically (laser) induced CNV, intravitreal injection, fluorescein angiography lesion areas
Format: in vivo, Brown Norway rats
Design: Mean of lesion areas, Left Eye (OS) / Mean of lesion areas, Both Eyes (OU): unit not given here
Settings: for fluorescein leakage in fluorescein angiography images: sample animal
From the text: In one example, twenty-four (24) naïve, male Brown Norway rats, 225-250 g at study start, are acclimated for a minimum of 5 days prior to dosing. Animals are weighed prior to dosing and at euthanasia. All animals undergo pre-screening ophthalmic examinations prior to study start as follows:
CNV is then induced via laser treatment (e.g. laser photocoagulation (20-100-μm spot size; 0.05-0.1 seconds duration; 50 to 200 mW) at six positions of the posterior pole in each eye) by a board certified veterinary ophthalmologist. Only animals in which the laser produces a bubble indicating rupture of Bruch's membrane, are included in the study. The compound is administered in suitable form of a Test Article. Test and Control Article treatment begin 3 days post laser induction. In another experiment, the Test and Control Article treatments begin prior to or immediately post induction, in yet other experiments, Test and Control Article treatments begin 10 days post induction. Study duration is 3 weeks, with the option to extend on a weekly basis based on extent of healing. Animals have clinical ophthalmic examinations and fluorescein angiography approximately 3 days post-induction (prior to Test Article treatment) to confirm disease state. The route of administration for Test Article(s) and vehicle control is intravitreal (IVT) injection on Day 1, which is approximately 3-4 days post-induction, once the CNV disease state has been confirmed.
In the first experiment, a low dose (5 μL at 3.7 mg/mL) and a high dose (5 μL at 7.8 mg/mL) of the compound are evaluated against vehicle control. The three treatment groups are (N=8 per group, 24 animals total):
A. Test Article—Low Dose (19 μg/eye)
B. Test Article—High Dose (39 μg/eye)
Daily gross ocular observations and general health observations are performed. Additional exams, performed weekly up to 3 weeks post Test Article dosing, include clinical ophthalmic exams, slit-lamp biomicroscopy, indirect ophthalmoscopy, and fluorescein staining if needed. Ocular findings are scored using the McDonald-Shadduck scoring system.
Fluorescein angiography (e.g. using Heidelberg SPECTRALIS® instrumentation) is performed to determine the degree of neovascularization (NV) in the retina and/or choroid. After fluorescein angiography, tissues are then harvested for possible future analysis (e.g. eyes are fixed in Davidson's solution and then transferred to 70% ethanol). Alternatively, the area of retinal and/or choroidal NV can be determined in various other ways. In one example, prior to sacrifice, the rodents are perfused with PBS containing 50 mg/mL of fluorescein-labeled dextran (2×10^6 Da average molecular mass). Alternatively, fluorescein-labeled Lycopersicon esculentum (tomato) lectin can be used. The choroids are then flat mounted and examined by fluorescence microscopy. A standard image analysis software is then used to measure the total area of retinal/choroidal NV with the investigator masked with respect to treatment group.
Results from an initial experiment treating animals with a control vehicle, low dose (19 μg/eye), or high dose (39 μg/eye) of Compound 7 are shown in FIGS. 1-6.
Animals were dosed on Day 3. […] The surrounding regions around the laser burn continued to show a higher fluorescence from Days 3-14. Day 9 intensities were attenuated due to the presence of fluorescein in both the anterior and posterior chambers of the eye.
FIGS. 4-6 and Tables 1-3 below show Mean (±SEM) of lesion areas in the right, left and both eyes, respectively.

[1] = High Dose (39 μg/eye, 5 μL at 7.8 mg/mL) IVT, Day 3 (prior to dosing)
[2] = High Dose (39 μg/eye, 5 μL at 7.8 mg/mL) IVT, Day 9
[3] = High Dose (39 μg/eye, 5 μL at 7.8 mg/mL) IVT, Day 14
[4] = High dose (39 μg/eye) IVT, Day 3 (baseline)
[5] = High dose (39 μg/eye) IVT, Day 9
[6] = High dose (39 μg/eye) IVT, Day 14
[7] = Low Dose (19 μg/eye, 5 μL at 3.7 mg/mL) IVT, Day 3 (prior to dosing)
[8] = Low Dose (19 μg/eye, 5 μL at 3.7 mg/mL) IVT, Day 9
[9] = Low Dose (19 μg/eye, 5 μL at 3.7 mg/mL) IVT, Day 14
[10] = Low dose (19 μg/eye) IVT, Day 3 (baseline)
[11] = Low dose (19 μg/eye) IVT, Day 9
[12] = Low dose (19 μg/eye) IVT, Day 14

Question: What does the source list for `O=C(O)CNC(=O)c1ncc(-c2cccc(F)c2)cc1O` [Compound 7, {[5-(3-fluorophenyl)-3-hydroxypyridine-2-carbonyl]amino} acetic acid]?
Answer: Mean of lesion areas, Both Eyes (OU) [1]: 4.21; Mean of lesion areas, Left Eye (OS) [1]: 3.86; Mean of lesion areas, Right Eye (OD) [1]: 4.56; Mean of lesion areas, Both Eyes (OU) [2]: 1.71; Mean of lesion areas, Left Eye (OS) [2]: 1.68; Mean of lesion areas, Right Eye (OD) [2]: 1.75; Mean of lesion areas, Both Eyes (OU) [3]: 0.71; Mean of lesion areas, Left Eye (OS) [3]: 0.84; Mean of lesion areas, Right Eye (OD) [3]: 0.58; percentage area reduction of lesion areas, Both Eyes [4]: 0.00%; percentage area reduction of lesion areas, Left Eye [4]: 0.00%; percentage area reduction of lesion areas, Right Eye [4]: 0.00%; percentage area reduction of lesion areas, Both Eyes [5]: −53.83%; percentage area reduction of lesion areas, Left Eye [5]: −46.66%; percentage area reduction of lesion areas, Right Eye [5]: −61.00%; percentage area reduction of lesion areas, Both Eyes [6]: −83.63%; percentage area reduction of lesion areas, Left Eye [6]: −79.77%; percentage area reduction of lesion areas, Right Eye [6]: −87.49%; Mean of lesion areas, Both Eyes (OU) [7]: 3.74; Mean of lesion areas, Left Eye (OS) [7]: 3.48; Mean of lesion areas, Right Eye (OD) [7]: 4.01; Mean of lesion areas, Both Eyes (OU) [8]: 1.84; Mean of lesion areas, Left Eye (OS) [8]: 1.81; Mean of lesion areas, Right Eye (OD) [8]: 1.88; Mean of lesion areas, Both Eyes (OU) [9]: 0.96; Mean of lesion areas, Left Eye (OS) [9]: 1.02; Mean of lesion areas, Right Eye (OD) [9]: 0.90; percentage area reduction of lesion areas, Both Eyes [10]: 0.00%; percentage area reduction of lesion areas, Left Eye [10]: 0.00%; percentage area reduction of lesion areas, Right Eye [10]: 0.00%; percentage area reduction of lesion areas, Both Eyes [11]: −48.43%; percentage area reduction of lesion areas, Left Eye [11]: −44.39%; percentage area reduction of lesion areas, Right Eye [11]: −52.47%; percentage area reduction of lesion areas, Both Eyes [12]: −73.63%; percentage area reduction of lesion areas, Left Eye [12]: −68.00%; percentage area reduction of lesion areas, Right Eye [12]: −79.25%; vascular leakage in the ocular vasculature compared with vehicle control (lesion areas over time) (low dose and high dose, FIGS. 4-6 (OD, OS, OU)): reduction of vascular leakage; overall fluorescence and leakage compared to animals treated with vehicle control (low or high doses (19 or 39 μg/eye) IVT): reduced overall fluorescence and leakage; fluorescein leakage in fluorescein angiography images (high dose (5 μL at 7.8 mg/mL), Day 9): Lower fluorescence leakage; fluorescein leakage in fluorescein angiography images (high dose (5 μL at 7.8 mg/mL), Day 14): no fluorescein leakage was observed; also recorded: no fluorescence leakage; fluorescein leakage in fluorescein angiography images (low dose (5 μL at 3.7 mg/mL), Day 9): Lower fluorescence leakage; fluorescein leakage in fluorescein angiography images (low dose (5 μL at 3.7 mg/mL), Day 14): almost subsided completely; also recorded: minimal fluorescence leakage

Reference: US20160339005A1, “COMPOSITIONS AND METHODS FOR TREATING OCULAR DISEASES” (AKEBIA THERAPEUTICS, INC., priority 2014, published 2016)
